Assay results as given in patent US20190240187A1, “ORAL PREPARATIONS WITH OMEPRAZOLE OR PANTOPRAZOLE” (SYMRISE AG, priority 2015, published 2019).

Assay: Bitter masking test: aqueous omeprazole solutions tasted by a panel in duo comparison tests
Type: in vivo
Details: 500 ppm omeprazole; for Masking effect on the bitterness of omeprazole (in words): 100 ppm additive
Text: To test the bitter masking effect, aqueous solutions, each containing 500 ppm omeprazole
(V1) alone or together (1) with 100 ppm eriodyctiol (ED) or (2) with 100 ppm homoeriodyctiol sodium salt (HE) or (3) with 100 ppm eriodyctiol+100 ppm homoeriodyctiol sodium salt or (V4) with 100 ppm 4′-fluoro-6-methoxyflavanone as a reference substance that has no masking effect, were tasted. Solutions 2-5 were each tasted by an experienced panel of 20-30 testers in a randomized order against solution 1 in duo comparison tests and the bitterness of each sample was estimated on a scale of 0 to 100.

Structure (SMILES)	Bitterness (mean panel estimate (20-30 testers) on a scale of 0 to 100, aqueous solution, additives 100 ppm each)	Masking effect on the bitterness of omeprazole (in words)
COc1ccc2[nH]c([S+]([O-])Cc3ncc(C)c(OC)c3C)nc2c1 (racemic) [Example V1, (RS)-5-methoxy-2-[(4-methoxy-3,5-dimethylpyridin-2-yl)methanesulfinyl]-1H-benzoinnidazole, reference compound]	80	–
O=C1CC(c2ccc(O)c(O)c2)Oc2cc(O)cc(O)c21 (stereo not drawn) [ED, 2-(3,4-dihydroxyphenyl)-5,7-dihydroxy-4-chronnanone]	–	act on their own as masking agents
COc1cc(C2CC(=O)c3c(O)cc(O)cc3O2)ccc1O (stereo not drawn) [HE, 5-7-dihydroxy-2-(4-hydroxy-3-methoxyphenyl)-4-chronnanone]	–	act on their own as masking agents
